Earlier results as cited in patent US6881247B2, “Protective barrier coating composition” (priority 2003, dated 2005).

Settings: calcium hydroxide

## [Ca+2].[OH-].[OH-] [calcium hydroxide, Calcium hydroxide]
  pH: 12.4
